Data on six molecules can be found in PMC2752819 (Assay and drug development technologies, 2008).

Where two headings read alike, the source gives them in different places.

In one assay the target is T1, MKP-1 (Homo sapiens, UniProt P28562).
T1 sequence (P28562 1-367): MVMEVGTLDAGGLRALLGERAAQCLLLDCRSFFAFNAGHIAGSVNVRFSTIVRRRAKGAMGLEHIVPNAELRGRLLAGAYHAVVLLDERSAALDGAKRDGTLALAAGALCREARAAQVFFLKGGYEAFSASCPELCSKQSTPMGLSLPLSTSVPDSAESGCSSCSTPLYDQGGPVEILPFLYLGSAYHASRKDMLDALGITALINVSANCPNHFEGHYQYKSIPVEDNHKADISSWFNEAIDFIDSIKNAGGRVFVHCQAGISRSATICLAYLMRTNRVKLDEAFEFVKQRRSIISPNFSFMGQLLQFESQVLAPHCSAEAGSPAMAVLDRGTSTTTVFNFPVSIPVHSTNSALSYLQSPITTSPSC
Briefly: biochemical.

The conditions of assay [1]: cited from earlier work.
Setting [2] is: MKP-1 + 1 mM DTT + catalase IC50, 1 mM DTT + 100 U of catalase.
[3] abbreviates: MKP-1 + 25 mM DTT IC50, 25 mM DTT.
Where [4] appears, read: read-out: MKP-1 + 1 mM DTT % inhibition at 50 μM.
The mark [5] stands for this setting: read-out: MKP-1 + 1 mM DTT + catalase % inhibition at 50 μM.
Where [6] appears, read: read-out: MKP-1 + 25 mM DTT % inhibition at 50 μM.

In the case of `CCn1nc(-c2cccs2)nc2c(=O)n(C)c(=O)nc1-2` [compound 850758, 1-ethyl-6-methyl-3-thiophen-2-ylpyrimido[5,6-e][1,2,4]triazine-5,7-dione], the values for the half-maximal inhibitory concentration (IC50) on MKP-1 (setting [2]) and on MKP-1 (setting [3]) were more than 50 µM and 4.43 µM, respectively. Besides, the inhibition at 50 µM is 94.4% on MKP-1 (setting [4]), -92.2% on MKP-1 (setting [5]) and 98.2% on MKP-1 (setting [6]).

Turning to `CCCCn1c(NC(=O)c2ccccc2)c(C#N)c2nc3ccccc3nc21` [compound 3712327, N-(1-butyl-3-cyanopyrrolo[5,4-b]quinoxalin-2-yl)benzamide], on MKP-1 (setting [3]), the IC50 is more than 50 µM. Moreover, the inhibition at 50 µM is 79.9% at MKP-1 (setting [4]), 69.9% at MKP-1 (setting [5]) and -5.25% on MKP-1 (setting [6]).

On to `Cn1ncnc2c(=O)n(C)c(=O)nc1-2` [compound 4251194, 1,6-dimethylpyrimido[5,6-e][1,2,4]triazine-5,7-dione], for which the IC50 at MKP-1 (setting [2]) is more than 50 µM; at MKP-1 (setting [3]) it was 5.68 µM. Moreover, the results for the inhibition at 50 µM on MKP-1 (setting [4]), at MKP-1 (setting [5]) and at MKP-1 (setting [6]) were 94.4%, -27.2% and 98%, respectively.

`CCn1nc(-c2ccccc2)nc2c(=O)n(C)c(=O)nc1-2` [compound 845167, 1-ethyl-6-methyl-3-phenylpyrimido[5,6-e][1,2,4]triazine-5,7-dione]: the 50% inhibitory concentration (IC50) at MKP-1 (setting [2]) was more than 50 µM; at MKP-1 (setting [3]) it was 4.9 µM. For the same molecule, the inhibition at 50 µM was 95.6% at MKP-1 (setting [4]), -66.3% at MKP-1 (setting [5]) and 96.2% at MKP-1 (setting [6]).

For `N#Cc1c(N)sc(=S)c2c1CCN(Cc1ccccc1)C2` [compound 845964, 3-amino-7-(phenylmethyl)-1-sulfanylidene-6,8-dihydro-5H-thiopyrano[5,4-c]pyridine-4-carbonitrile], the IC50 at MKP-1 (setting [2]) and on MKP-1 (setting [3]) was more than 50 µM each time. The inhibition at 50 µM on MKP-1 (setting [4]) was found to be 95.2%; at MKP-1 (setting [5]) it was 47.7%; at MKP-1 (setting [6]), 35.7%.

In the case of `O=C1C(=O)c2ccccc2-c2ccccc21` [9,10-phenanthrenedione], the “H2O2 generation in the presence of DTT” value in assay [1] is “generate significant amounts of H2O2”.

The term IC50 denotes the concentration that inhibits the measured activity by half. A word on the inhibition: it is the relative decrease from the control value, in per cent.
